Measured values reported in patent US6627603B1, “Method for releasing an active principle contained a multiple emulsion” (Centre National de la Recherche Scientifiquue (C.N.R.S.), priority 1997, dated 2003).

Columns and labels:
Format in all cases: physicochemical
[1] = Characteristic release time by phase-contrast optical microscopy; details: assessed visually using a microscope
Description: Various emulsions are prepared according to the procedure defined in Example No. 1. The concentration of the surface-active agent (SDS) present in the external aqueous phase is varied and the change over time of the double emulsion is observed with a phase-contrast optical microscope (Zeiss Axiovert 100). The curve in FIG. 2 describes the change in the characteristic release time as a function of the concentration of surface-active agent present in the external aqueous phase. The characteristic release time is defined as the time at the end of which virtually all the droplets of phase A1 have been released into the external aqueous phase A2 (by coalescence). As indicated, this time is assessed visually using a microscope. It will be noted that the release time changes from several days, when the concentration is less than 10 CMC, to only a few hours, when the concentration is equal to 40 CMC.

[2] = Potentiometric determination of salt (KCl) release from a monodisperse double emulsion
Description: A monodisperse water-in-dodecane inverse emulsion which is stabilized with Span 80 is prepared.
The aqueous phase (80% by volume) is introduced with gentle shearing (of the order of 1000 s^−1) into a continuous phase composed of a dodecane/Span mixture (1:1 by mass). The aqueous phase comprises 1 mol per liter of potassium chloride. This salt acts as active substance which has to be released. The initial polydisperse emulsion is converted by a fractional crystallisation technique, so as to obtain a monodisperse emulsion (Bibette J., J. Colloid Interface Sci., 1991, 147, 474).
The preceding inverse emulsion is emulsified in its turn in an aqueous phase comprising a hydrophilic surface active agent (SDS). A double emulsion is thus obtained composed of oily globules comprising water droplets, which droplets result from the first stage.
The double emulsion is manufactured using a microfluidizer (Jet homogenizer from Labplant). This method consists in bringing the disperse phase and the continuous phase into contact under very high pressure and in then injecting the mixture via a hole with a small diameter (0.1 mm).
The concentration of the KCl initially incorporated in the internal aqueous phase of the double emulsion is measured in the external aqueous phase by potentiometry.
The potentiometric quantitative determination is based on the measurement of a difference in potential between an indicator electrode (Ag/AgCl) and a reference electrode (mercurous sulphate electrode) which are immersed in the colloidal solution comprising the electrolyte to be quantitatively determined (Cl^− ion). The concentration of the Cl^− ion is in this case directly related to the potential ΔE of the Ag/AgCl electrode by a relationship of the type:
ΔE=β+α log Cq (Nernst relationship).
It is then possible, via a calibration line, to know at any moment the concentration of Cl^− ion released into the external aqueous phase.
The results obtained are presented in graphical form in FIG. 1. […]

[3] = Transfer of inverse-emulsion water droplets to an aqueous surfactant phase, detected by AgCl precipitate
Description: In a first step, a monodisperse water-in-dodecane inverse emulsion which is stabilized with Span 80® (sorbitan monooleate from the company Sigma) is prepared. This emulsion is prepared by slowing introducing the disperse aqueous phase (80% by volume) with gentle shearing (of the order of 1000 s^−1) into a continuous phase composed of a dodecane/Span 80 mixture in a 1/1 ratio by weight. Sodium chloride NaCl (0.1M), intended to simulate the presence of the active principle in the aqueous phase A1, is added. Advantageously, it has been shown that the presence of this salt reinforces the stability of the inverse emulsion Ei (Aronson M. P., Petko M. F., J. Colloid Interface Sci., 1993, 159, 134). The initial polydisperse emulsion is converted by a fractional crystallisation technique (Bibette J., J. Colloid Interface Sci., 1991, 147, 474) into a monodisperse emulsion.
Several multiple emulsions were subsequently prepared from this inverse emulsion by mixing it with an aqueous solution comprising sodium dodecyl sulphate (SDS, HLB=40) at various concentrations below or greater than its critical micelle concentration, which is 8×10^−3 mol/l.
The test consists in carefully bringing together (over an area of 1 cm^2) equivalent volumes (1 cm^3) of the inverse emulsion and of water comprising variable amounts of SDS surfactant and a concentration of AgNO3 at a concentration of 10^−3 mol/l. The transfer of the water present in the inverse droplets to the macroscopic aqueous phase is detected by observation of an AgCl precipitate which is formed at the macroscopic interface when the internal contents transfer to the external phase. This is because, when the water droplets move via a coalescence phenomenon from the upper inverse emulsion to the lower aqueous phase, the upper phase gradually becomes transparent whereas the lower phase gradually becomes milky.
Above this limit concentration, the water droplets quickly transfer (in less than 48 hours) within the second phase. […]

[4] = Stability of the multiple emulsion versus surfactant concentration in the external phase (microscope)
Description: In this test, a multiple emulsion is prepared by dispersing the inverse emulsion in a continuous aqueous phase comprising the SDS surfactant at a concentration equal to one tenth of its critical micelle concentration. The inverse phase is the same as that described above in Example 1: the fraction by volume of water drops is present therein at a concentration of 10% by volume with 0.1 mol/l of NaCl for a concentration of surfactant of 2%. The multiple emulsion is therefore composed of 90% by volume of an external aqueous phase and of 10% of the inverse phase. A high degree of shearing, of the order of 10,000 revolutions per minute, is applied using an Ultra-turrax device for 10 seconds to a total volume of […] of the overall composition, which results in the appearance of double drops in which the water content and the size of the droplets are retained.
Double drops are observed, with each of them comprising small inverse water drops.
This test is repeated, the concentration of the surfactant within the external aqueous phase Ce being varied and the double emulsion being freshly prepared, and the duration of existence of the internal water droplets is recorded. […] This transition takes place for exactly the same concentration as that mentioned in Example 1, that is to say approximately 10 CMC. […] It is thus observed, under a microscope, that only phenomena of coalescence between the tiny inverse water drops and the interface of the direct drops are responsible for the change which is observed.
Only a gradual decrease in the concentration of internal droplets is observed.

[5] = Multiple emulsions with Tween 80 in aqueous phase A2: transfer of internal water droplets; details: Tween 80 as surfactant in aqueous phase A2
Description: Multiple emulsions are prepared according to the procedure described in the preceding examples by using Tween 80 in the aqueous phase A2 as surfactant. Its HLB is 15 and its critical micelle concentration is […]. The same type of result is observed. Transfer of the internal water droplets is also dependent on the concentration Ce of the surfactant in the external phase. In this case, the limit concentration is approximately 200 CMC.
It is observed for this surfactant that the internal water droplets coalesce with one another. This instability appears rapidly and results in a few internal water drops with a greater surface area, still imprisoned in the oily globules.

For `CCCCCCCCCCCCOS(=O)(=O)[O-].[Na+]` [SDS, sodium dodecyl sulphate], the characteristic release time ([1]; SDS concentration equal to 40 CMC) was “a few hours”, the characteristic release time ([1]; SDS concentration less than 10 CMC) was “several days” and the concentration threshold ([2]; KCl double emulsion, globules 4 μm, droplets 0.3 μm) was 10 CMC. The “time corresponding to complete release of the salt” value ([2]; SDS concentration greater or equal to 10 CMC, KCl 1 mol per liter in internal phase, release by coalescence) was “less than 500 minutes”, the “release of the salt into the external aqueous phase” value ([2]; SDS concentration less than 10 CMC, passive diffusion, emulsion retains its double nature) was “very slow” and the “time for transfer of the water droplets within the second phase” value ([3]; above the limit concentration (approximately 10 CMC)) was “less than 48 hours”. For the same molecule, the “concentration at which transfer via coalescence takes place” value ([3]; same test with gentle centrifuging for 15 minutes) was 10 CMC, the “limit concentration of surfactant below which the water droplets do not transfer to the second phase” value ([3]; water-in-dodecane inverse emulsion (Span 80, NaCl 0.1M) on water with AgNO3 10^−3 mol/l, no transfer even for several days below the limit) was “approximately 10 CMC” and the “coalescence between the big double globules” value ([4]; SDS at one tenth of its CMC in external phase, after storage for two months) was “No phenomenon of coalescence”. The “period of time for conversion into a direct emulsion” value ([4]; SDS concentration above the transition (approximately 10 CMC)) was “a few hours”, the “duration for which the double emulsion is retained” value ([4]; SDS concentration below the transition (approximately 10 CMC)) was “more than one month” and the “concentration at which the double emulsion is converted into a direct emulsion (transition)” value ([4]; freshly prepared double emulsion, NaCl 0.1 mol/l internal phase, Span 80 2%) was “approximately 10 CMC”.
For `CCCCCCCC/C=C\CCCCCCCC(=O)OCCOCC(OCCO)C1OCC(OCCO)C1OCCO` (stereo not shown) [Tween 80], the “limit concentration for transfer of the internal water droplets” value [5] was “approximately 200 CMC”.
